Experimental data as given in patent US5550212A, “Analogues of hGH-RH(1-29)NH2 having antagonistic activity” (The Administrators of the Tulane Educational Fund, priority 1993, dated 1996).
Non-standard residues stand in square brackets, D forms with d. Residues, ends and D or L forms follow the SMILES beside them. No end group written: not given here. *: point of attachment. Phe(4-Cl) = N[C@@H](Cc1ccc(Cl)cc1)C(=O)O; Agmatine = N=C(N)NCCCCN*; Isobutyryl = CC(C)C(=O)*; Nle = CCCC[C@H](N)C(=O)O; Abu = CC[C@H](N)C(=O)O; X1 = O=C(CCBr)*

Columns and labels:
[1] = target: T1, rat pituitary GH-RH receptors (Rattus norvegicus, UniProt Q02644); assay: GH-RH binding assay, competitive binding on rat anterior pituitary membrane homogenates; settings: for Ki: competition with labelled [His1,Nle27]hGH-RH(1-32)NH2; for R.A. (relative affinity compared to the Standard antagonist): ratio of Ki values, Standard = 1
T1 construct: from tissue; host or cells: rat anterior pituitary (male Sprague-Dawley), crude membranes
T1 sequence (Q02644 23-464): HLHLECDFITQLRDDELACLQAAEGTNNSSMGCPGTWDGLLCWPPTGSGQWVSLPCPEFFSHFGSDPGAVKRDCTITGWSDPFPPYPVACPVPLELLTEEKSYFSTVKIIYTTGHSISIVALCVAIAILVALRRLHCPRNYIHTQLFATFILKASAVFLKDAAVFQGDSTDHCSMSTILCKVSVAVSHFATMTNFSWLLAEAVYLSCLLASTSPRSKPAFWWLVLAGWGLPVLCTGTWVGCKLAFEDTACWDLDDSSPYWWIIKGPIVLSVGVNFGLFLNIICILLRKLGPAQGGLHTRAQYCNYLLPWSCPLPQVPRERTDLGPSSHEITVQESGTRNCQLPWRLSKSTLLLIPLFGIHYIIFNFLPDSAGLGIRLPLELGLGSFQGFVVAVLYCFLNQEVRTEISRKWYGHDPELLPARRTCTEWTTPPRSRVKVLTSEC
Experimental: GH-RH Binding Assay. A sensitive radioreceptor binding assay was developed to determine the binding characteristics of the antagonists of GH-RH (G. Halmos, A. V. Schally et al., Receptor 3, 87-97, 1993), hereby incorporated by reference. The assay is based on binding of labelled [His^1,Nle^27 ]hGH-RH(1-32)NH2 to rat anterior pituitary membrane homogenates. Iodinated derivatives of [His^1,Nle^27 ]hGH-RH(1-32)NH2 are prepared by the chloramine-T method (F. C. Greenwood et al., Biochemistry 89:114-123, 1963), hereby incorporated by reference. Pituitaries from male Sprague-Dawley rats (250-300 g) are used to prepare crude membranes. For saturation binding analyses, membrane homogenates are incubated with at least 6 concentrations of [His^1,^25 I-Tyr^10,Nle^27 ]hGH-RH(1-32)NH2, ranging from 0.005 to 0.35 nM in the presence or absence of excess unlabelled peptide (1 μM). The pellet is counted for radioactivity in a y-counter. The affinities of the antagonist peptides tested to rat pituitary GH-RH receptors are determined in competitive binding experiments. The final binding affinities are estimated by Ki (dissociation constant of the inhibitor-receptor complex) and are determined by the Ligand PC computer program of Munson and Rodbard as modified by McPherson. Relative affinities compared to [Ac-Tyr^1,D-Arg^2 ]hGH-RH(1-29)NH2, the Standard antagonist, are calculated as the ratio of Ki of the tested GH-RH antagonist to the Ki of the Standard antagonist.

[2] = tested on: hGH-RH(1-29)NH2 induced GH release; assay: Superfused rat pituitary system: inhibition of hGH-RH(1-29)NH2 induced GH release; format: cell-based; settings: for Inhibition of GH release (%) 0 min: 0 min response; for Inhibition of GH release (%) 30 min: 30 min response; for Inhibition of GH release (%) 60 min: 60 min response
Experimental: Superfused Rat Pituitary System. The analogues were tested in vitro in a test described earlier (S. Vigh and A. V. Schally, Peptides 5:241-[…], 1984) with modification ([…] and […]. 90:2146-2149, 1993). Briefly, the cells are preincubated with peptides for 9 minutes (3 mL) at various concentrations. Immediately after the incubation, 1 nM hGH-RH(1-29)NH2 is administered for 3 minutes (1 mL) [0 minute response]. To check the duration of the antagonistic effect of the analogue, 1 nM hGH-RH(1-29)NH2 is applied 30, 60, 90, and 120 minutes later for 3 minutes [30, 60, 90, 120 min responses]. Net integral values of the GH responses are evaluated. GH responses are compared to and expressed as percent of the original GH response induced by 1 nM GH-RH(1-29)NH2. The effect of the new antagonists are compared to that of [Ac-[…] ]hGH-RH(1-29)NH2, the "Standard antagonist". Growth Hormone Radio-immunoassay. Rat GH levels in aliquots of undiluted and diluted superfusion samples were measured by double-antibody radioimmunoassay using materials supplied by the National Hormone and Pituitary Program, Baltimore, Md. The results of RIA were analyzed with a computer program developed in our institute (V. Csernus and A. V. Schally, Harwood Academic (Greenstein, B. C. ed., London, pp. 71-109, 1991), hereby incorporated by reference. Inter-assay variation was less than 15% and intra-assay variation was less than 10%.

[3] = tested on: hGH-RH(1-29)NH2 induced GH release; assay: In vivo test: serum GH levels in rats pretreated with GH-RH antagonists before hGH-RH(1-29)NH2; design: species or system Sprague-Dawley rats
Experimental: In Vivo Tests. Adult male Sprague-Dawley rats are anesthetized with pentobarbital (6 mg/100 g b.w., i.p.). Blood samples are taken from the jugular vein 30 min after the injection of pentobarbital. One group of 7 animals receives hGH-RH(1-29)NH2 as control. Other groups of rats are injected with [Ac-Tyr^1,D-Arg^2 ]hGH-RH(1-29)NH2 as Standard antagonist, or with one of the antagonist peptide 30 seconds prior to hGH-RH(1-29)NH2, which is administered at dose of 2-3 μg/kg b.w. Blood samples are taken from the jugular vein 5 and 15 min after the injection of antagonists. GH levels are measured by RIA. Potencies of the antagonists are calculated by the factorial analysis of Bliss and Marks with 95% confidence limits and are based on the doses of 100 and 400 μg/kg b.w. of the Standard antagonist and 20 and 80 μg/kg b.w. of the antagonists tested. Statistical significance was assessed by Duncan's new multiple range test.

[4] = tested on: GH release; settings: cited from earlier work; for bioactivity (in words): compared with hGH-RH(1-29)NH2
[5] = tested on: GH release; settings: cited from earlier work

With `CCCC[C@H](NC(=O)[C@@H](NC(=O)[C@H](CC(=O)O)NC(=O)[C@H](CCC(N)=O)NC(=O)[C@H](CC(C)C)NC(=O)[C@H](CC(C)C)NC(=O)[C@H](CCCCN)NC(=O)[C@H](CCCNC(=N)N)NC(=O)[C@H](C)NC(=O)[C@H](CO)NC(=O)[C@H](CC(C)C)NC(=O)[C@H](CCC(N)=O)NC(=O)[C@H](CC)NC(=O)[C@H](CC(C)C)NC(=O)[C@@H](NC(=O)[C@H](C)NC(=O)[C@H](CCCNC(=N)N)NC(=O)[C@H](Cc1ccc(O)cc1)NC(=O)[C@H](CO)NC(=O)[C@H](CC(N)=O)NC(=O)[C@@H](NC(=O)[C@H](Cc1ccc(Cl)cc1)NC(=O)[C@@H](NC(=O)[C@H](C)NC(=O)[C@H](CC(=O)O)NC(=O)[C@@H](CCCNC(=N)N)NC(=O)[C@H](Cc1ccc(O)cc1)NC(=O)C(C)C)[C@@H](C)CC)[C@@H](C)O)C(C)C)[C@@H](C)CC)C(=O)N[C@@H](CO)C(=O)N[C@@H](CCCNC(=N)N)C(N)=O` [Peptide 15, [Ibu^0,D-Arg^2,Phe(pCl)^6,Ala^12,Abu^15,Nle^27]hGH-RH(1-29)NH2] (Isobutyryl-Y[dR]DAI[Phe(4-Cl)]TNSYRAVL[Abu]QLSARKLLQDI[Nle]SR-NH2) the Ki [1] was 0.73 ± 0.05 nM.

`CCCC[C@H](NC(=O)[C@@H](NC(=O)[C@H](CC(=O)O)NC(=O)[C@H](CCC(N)=O)NC(=O)[C@H](CC(C)C)NC(=O)[C@H](CC(C)C)NC(=O)[C@H](CCCCN)NC(=O)[C@H](CCCNC(=N)N)NC(=O)[C@H](C)NC(=O)[C@H](CO)NC(=O)[C@H](CC(C)C)NC(=O)[C@H](CCC(N)=O)NC(=O)[C@H](CC)NC(=O)[C@H](CC(C)C)NC(=O)[C@@H](NC(=O)[C@H](CCCCN)NC(=O)[C@H](CCCNC(=N)N)NC(=O)[C@H](Cc1ccc(O)cc1)NC(=O)[C@H](CO)NC(=O)[C@H](CC(N)=O)NC(=O)[C@@H](NC(=O)[C@H](Cc1ccc(Cl)cc1)NC(=O)[C@@H](NC(=O)[C@H](C)NC(=O)[C@H](CC(=O)O)NC(=O)[C@@H](CCCNC(=N)N)NC(=O)[C@H](Cc1ccc(O)cc1)NC(=O)C(C)C)[C@@H](C)CC)[C@@H](C)O)C(C)C)[C@@H](C)CC)C(=O)N[C@@H](CO)C(=O)NCCCCNC(=N)N` [Peptide 19, Ibu^0,D-Arg^2, Phe(pCl)^6,Abu^15,Nle^27]hGH-RH(1-28)Agm] (Isobutyryl-Y[dR]DAI[Phe(4-Cl)]TNSYRKVL[Abu]QLSARKLLQDI[Nle]S-Agmatine) showed a Ki [1] of 0.12 ± 0.04 nM.

In the case of `CCCC[C@H](NC(=O)[C@@H](NC(=O)[C@H](CC(=O)O)NC(=O)[C@H](CCC(N)=O)NC(=O)[C@H](CC(C)C)NC(=O)[C@H](CC(C)C)NC(=O)[C@H](CCCCN)NC(=O)[C@H](CCCNC(=N)N)NC(=O)[C@H](C)NC(=O)[C@H](CO)NC(=O)[C@H](CC(C)C)NC(=O)[C@H](CCC(N)=O)NC(=O)[C@H](CC)NC(=O)[C@H](CC(C)C)NC(=O)[C@@H](NC(=O)[C@H](CCCCN)NC(=O)[C@H](CCCNC(=N)N)NC(=O)[C@H](Cc1ccc(O)cc1)NC(=O)[C@H](CO)NC(=O)[C@H](CC(N)=O)NC(=O)[C@@H](NC(=O)[C@H](Cc1ccc(Cl)cc1)NC(=O)[C@@H](NC(=O)[C@H](C)NC(=O)[C@H](CC(=O)O)NC(=O)[C@@H](CCCNC(=N)N)NC(=O)[C@H](Cc1ccc(O)cc1)NC(=O)CCBr)[C@@H](C)CC)[C@@H](C)O)C(C)C)[C@@H](C)CC)C(=O)N[C@@H](CO)C(=O)NCCCCNC(=N)N` [Peptide 20] (X1-Y[dR]DAI[Phe(4-Cl)]TNSYRKVL[Abu]QLSARKLLQDI[Nle]S-Agmatine; N-terminus assumed), the “Inhibition of GH release (%) 0 min” value ([2]; dose 10 nM) is reported as 56.2%, the “Inhibition of GH release (%) 30 min” value ([2]; dose 10 nM) is reported as 35.2% and the “Inhibition of GH release (%) 60 min” value ([2]; dose 10 nM) is reported as 51.8%. The “Inhibition of GH release (%) 0 min” value ([2]; dose 30 nM) was 58%, the “Inhibition of GH release (%) 30 min” value ([2]; dose 30 nM) was 19.3% and the “Inhibition of GH release (%) 60 min” value ([2]; dose 30 nM) was 35.3%. For the same molecule, the “Inhibition of GH release (%) 0 min” value ([2]; dose 100 nM) was 86.4%, the “Inhibition of GH release (%) 30 min” value ([2]; dose 100 nM) was 75% and the “Inhibition of GH release (%) 60 min” value ([2]; dose 100 nM) was 62.8%. For the same molecule, the “R.A. (relative affinity compared to the Standard antagonist)” value [1] was 3.27.

For `CC[C@H](C)[C@H](NC(=O)[C@H](C)NC(=O)[C@H](CC(=O)O)NC(=O)[C@@H](CCCNC(=N)N)NC(=O)[C@H](Cc1ccc(O)cc1)NC(C)=O)C(=O)N[C@@H](Cc1ccccc1)C(=O)N[C@H](C(=O)N[C@@H](CC(N)=O)C(=O)N[C@@H](CO)C(=O)N[C@@H](Cc1ccc(O)cc1)C(=O)N[C@@H](CCCNC(=N)N)C(=O)N[C@@H](CCCCN)C(=O)N[C@H](C(=O)N[C@@H](CC(C)C)C(=O)NCC(=O)N[C@@H](CCC(N)=O)C(=O)N[C@@H](CC(C)C)C(=O)N[C@@H](CO)C(=O)N[C@@H](C)C(=O)N[C@@H](CCCNC(=N)N)C(=O)N[C@@H](CCCCN)C(=O)N[C@@H](CC(C)C)C(=O)N[C@@H](CC(C)C)C(=O)N[C@@H](CCC(N)=O)C(=O)N[C@@H](CC(=O)O)C(=O)N[C@H](C(=O)N[C@@H](CCSC)C(=O)N[C@@H](CO)C(=O)N[C@@H](CCCNC(=N)N)C(N)=O)[C@@H](C)CC)C(C)C)[C@@H](C)O` [Standard antagonist, [Ac-Tyr^1, D-Arg^2]hGH-RH(1-29)NH2, reference compound] (Ac-Y[dR]DAIFTNSYRKVLGQLSARKLLQDIMSR-NH2), the “Inhibition of GH release (%) 0 min” value ([2]; dose 100 nM) was 62.1%, the “Inhibition of GH release (%) 30 min” value ([2]; dose 100 nM) was 2.5% and the “Inhibition of GH release (%) 60 min” value ([2]; dose 100 nM) was 19%. For the same molecule, the “GH Levels” value ([3]; antagonist 100.0 μg/kg intravenously before GH-RH(1-29)NH2) was 738.3 ± 34.7 ng/mL, the “GH Levels” value ([3]; antagonist 400.0 μg/kg intravenously before GH-RH(1-29)NH2) was 439.7 ± 47.3 ng/mL and the Ki [1] was 3.22 ± 0.12 nM. The “R.A. (relative affinity compared to the Standard antagonist)” value [1] was 1.

In the case of “GH-RH(1-27)NH2 (YADAIFTNSYRKVLGQLSARKLLQDIM-NH2; UniProt P01286 32-58, looked up, fragment) [shorter GH-RH analogue]”, the “bioactivity (in words)” value [4] is given as “substantially lower bioactivity”.

For “GH-RH(1-28)NH2 (YADAIFTNSYRKVLGQLSARKLLQDIMS-NH2; UniProt P01286 32-59, looked up, fragment) [shorter GH-RH analogue]”, the “bioactivity (in words)” value [4] is listed as “substantially lower bioactivity”.

In the case of “[Ac-Tyr^1 ]GH-RH (Ac-YADAIFTNSYRKVLGQLSARKLLQDIMSRQQGESNQERGARARL; ends and bridges not checked; UniProt P01286 32-75, looked up)”, the “GH releasing activity relative to GH-RH” value [4] is given as 2-3%.

For [AcTyr^1 ]hGH-RH(1-29)NH2, the “in vivo potency over that of GH-RH” value [5] is listed as “ten fold or more”.

For [D-Tyr^1 ]GH-RH, the “GH releasing activity relative to GH-RH” value [4] is given as 2-3%.

For “hGH-RH(2-44) (ADAIFTNSYRKVLGQLSARKLLQDIMSRQQGESNQERGARARL; ends and bridges not checked; UniProt P01286 33-75, looked up, fragment) [GH-RH without its N-terminus residue]”, the “GH releasing activity relative to GH-RH” value [4] is given as 0.1%.
